Measurements reported in ChEMBL document CHEMBL4052642, “4-Methyl-6,7-dihydro-4H-triazolo[4,5-c]pyridine-Based P2X7 Receptor Antagonists: Optimization of Pharmacokinetic Properties Leading to the Identification of a Clinical Candidate” (J Med Chem, 2017).
In brackets after ≈: the same amount, converted by molar mass.

What was measured:
Rattus norvegicus [1] = assay: Toxicity in rat assessed as autoinduction at 50 to 500 mg/kg administered via oral gavage on day 1 and day 5; type: organism-based; settings: in vivo
Rattus norvegicus [2] = assay: Toxicity in rat assessed as increase in liver weight at 50 to 500 mg/kg administered via oral gavage on day 1 and day 4; type: organism-based; settings: in vivo
[3] = Drug metabolism in cynomolgus monkey liver microsomes assessed as oxidation of methyl group on pyrimidine at 1 uM after 5 to 60 mins by LC-MS/MS analysis; type: ADME, Macaca fascicularis, microsome
Liver [4] = assay: Drug metabolism in dog liver microsomes assessed as oxidation of methyl group on pyrimidine at 1 uM after 5 to 60 mins by LC-MS/MS analysis; type: ADME, Canis lupus familiaris, microsome
Liver [5] = assay: Drug metabolism in rat liver microsomes assessed as oxidation of methyl group on pyrimidine at 1 uM after 5 to 60 mins by LC-MS/MS analysis; type: ADME, microsome
Liver [6] = assay: Drug metabolism in human liver microsomes assessed as oxidation of methyl group on pyrimidine at 1 uM after 5 to 60 mins by LC-MS/MS analysis; type: ADME, microsome
Liver [7] = assay: Drug metabolism in mouse liver microsomes assessed as oxidation of methyl group on pyrimidine at 1 uM after 5 to 60 mins by LC-MS/MS analysis; type: ADME, microsome
Cytochrome P450 2C19 = Cytochrome P450 2C19 (Homo sapiens, UniProt P33261); assay: Drug metabolism assessed as recombinant human CYP2C19-mediated metabolite formation; type: ADME; settings: recombinant enzyme
Chain of Cytochrome P450 2C19 (P33261 whole entry): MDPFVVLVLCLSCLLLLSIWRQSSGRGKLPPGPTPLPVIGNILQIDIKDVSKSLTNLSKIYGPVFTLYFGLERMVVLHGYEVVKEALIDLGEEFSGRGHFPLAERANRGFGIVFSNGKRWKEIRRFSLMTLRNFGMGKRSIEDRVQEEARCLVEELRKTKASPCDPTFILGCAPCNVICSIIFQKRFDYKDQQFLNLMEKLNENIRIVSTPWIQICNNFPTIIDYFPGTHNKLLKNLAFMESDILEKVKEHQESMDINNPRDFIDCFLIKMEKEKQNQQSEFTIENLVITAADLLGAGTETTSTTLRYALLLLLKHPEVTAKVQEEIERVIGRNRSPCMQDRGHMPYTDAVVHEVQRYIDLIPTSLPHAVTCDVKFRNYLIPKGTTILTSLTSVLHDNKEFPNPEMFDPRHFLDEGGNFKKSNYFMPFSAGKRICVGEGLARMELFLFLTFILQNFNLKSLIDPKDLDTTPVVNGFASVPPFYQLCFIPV

[8] = Oral bioavailability in beagle dog at 2.5 mg/kg by LC-MS/MS analysis; type: ADME, organism-based, Canis lupus familiaris; settings: beagle, in vivo
[9] = Half life in beagle dog at 0.5 mg/kg, iv by LC-MS/MS analysis; type: ADME, organism-based, Canis lupus familiaris; settings: in vivo
[10] = Volume of distribution at steady state in beagle dog at 0.5 mg/kg, iv or 2.5 mg/kg, po by LC-MS/MS analysis; type: ADME, organism-based, Canis lupus familiaris; settings: in vivo, read-out: Vdss
[11] = Clearance in beagle dog at 0.5 mg/kg, iv or 2.5 mg/kg, po by LC-MS/MS analysis; type: ADME, organism-based, Canis lupus familiaris; settings: in vivo
Rattus norvegicus [12] = assay: Ex vivo receptor occupancy at P2X7 in po dosed Sprague-Dawley rat brain after 60 mins by autoradiography; type: functional; settings: 1 h
Rattus norvegicus [13] = assay: Ex vivo receptor occupancy at P2X7 in po dosed Sprague-Dawley rat brain assessed as plasma concentration required to achieve EC50 after 60 mins by autoradiography; type: functional, organism-based
[14] = Oral bioavailability in Sprague-Dawley rat at 5 mg/kg by LC-MS/MS analysis; type: ADME, organism-based; settings: in vivo
[15] = Half life in Sprague-Dawley rat at 1 mg/kg, iv by LC-MS/MS analysis; type: ADME, organism-based; settings: in vivo
[16] = Volume of distribution at steady state in Sprague-Dawley rat at 1 mg/kg, iv or 5 mg/kg, po by LC-MS/MS analysis; type: ADME, organism-based; settings: in vivo, read-out: Vdss
[17] = Solubility of compound in phosphate buffer at pH 7 after 3 days; type: physicochemical
[18] = Clearance in Sprague-Dawley rat at 1 mg/kg, iv or 5 mg/kg, po by LC-MS/MS analysis; type: ADME, organism-based; settings: in vivo
[19] = Protein binding in rat brain at 5 uM after 5 hrs by equilibrium dialysis method; type: ADME, tissue-based; settings: read-out: PB (converted)
[20] = Solubility of compound in phosphate buffer at pH 2 after 3 days; type: physicochemical
[21] = Protein binding in human plasma at 1 uM after 6 hrs by equilibrium dialysis method; type: ADME, cell-free; settings: read-out: PPB (converted)
[22] = Protein binding in mouse plasma at 1 uM after 6 hrs by equilibrium dialysis method; type: ADME, cell-free; settings: read-out: PPB (converted)
[23] = Protein binding in rat plasma at 1 uM after 6 hrs by equilibrium dialysis method; type: ADME, cell-free; settings: read-out: PPB (converted)

Drug metabolism [3]: Metabolite_Detected
Drug metabolism (Liver [4]): Metabolite_Detected
Drug metabolism (Liver [5]): Metabolite_Detected
Drug metabolism (Liver [6]): Metabolite_Detected
Drug metabolism (Liver [7]): Metabolite_Detected
Drug metabolism (Cytochrome P450 2C19): Metabolite_Detected
bioavailability [8]: 86%
half-life [9]: 42 min
Vd [10]: 1.8 L/kg
clearance [11]: 21 mL/min/kg
Cp (Rattus norvegicus [13]): 51 ng/mL
bioavailability [14]: 3%
half-life [15]: 48 min
Vd [16]: 1.6 L/kg
solubility at 72 h [17]: 283 µM (≈ 124 µg/mL)
clearance [18]: 64 mL/min/kg
fraction unbound at 5 h, 5 µM [19]: 0.041
solubility at 72 h [20]: 328 µM (≈ 143 µg/mL)
fraction unbound at 6 h, 1 µM [21]: 0.085
fraction unbound at 6 h, 1 µM [22]: 0.095
fraction unbound at 6 h, 1 µM [23]: 0.095
SMILES: Cc1ccnc(-n2nnc3c2CCN(C(=O)c2cccc(C(F)(F)F)c2Cl)[C@@H]3C)n1
Activity (Rattus norvegicus [1]): Toxic
Activity (Rattus norvegicus [2]): Toxic
ED50 (Rattus norvegicus [12]): 8.3 mg/kg
